# Laboratory results from patent publication US20230053540A1, “TREATMENT OF LIVER INJURY” (Massachusetts Institute of Technology, priority 2019, published 2023).
# Tested on: hepatocytes
# Experiment: Seq-Well scRNA-Seq of hepatocytes after APAP overdose (signature scores, DEG vs untreated)
# Assay type: in vivo, mouse
# Settings: APAP vs UT
compound,measurement,setting,value
"CC(=O)Nc1ccc(O)cc1 [APAP, acetaminophen]",Tm7sf2 logFC,composite DEG,−0.3164
same,Tmbim4 logFC,composite DEG,0.3227
same,Tmbim6 logFC,composite DEG,0.3387
same,Tmed5 logFC,composite DEG,0.4016
same,Tmem14c logFC,composite DEG,−0.3685
same,Tmem37 logFC,composite DEG,−0.2822
same,Tmem56 logFC,composite DEG,1
same,Tmem147 logFC,composite DEG,−0.2838
same,Tmem160 logFC,composite DEG,−0.339
same,Tmem205 logFC,composite DEG,−0.7747
same,Tmem243 logFC,composite DEG,−0.3791
same,Tmem258 logFC,composite DEG,−0.2769
same,Tmprss6 logFC,composite DEG,−0.2802
same,Tmsb4x logFC,composite DEG,0.7806
same,Tnks2 logFC,composite DEG,0.3176
same,Tns1 logFC,composite DEG,0.4349
same,Tob1 logFC,composite DEG,−0.3387
same,Tomm70a logFC,composite DEG,0.2688
same,Tpr logFC,composite DEG,0.4409
same,Trf logFC,composite DEG,−0.2619
same,Trib1 logFC,composite DEG,0.3317
same,Trp53inp1 logFC,composite DEG,1.008
same,Tsc22d1 logFC,composite DEG,−0.2997
same,Tspan31 logFC,composite DEG,−0.2959
same,Tspo logFC,composite DEG,−0.3157
same,Ttc36 logFC,composite DEG,−0.6606
same,Tubb6 logFC,composite DEG,0.5767
same,Txn1 logFC,composite DEG,−0.3091
same,Txndc5 logFC,composite DEG,0.2901
same,Txnrd1 logFC,composite DEG,1.444
same,Tyrobp logFC,composite DEG,0.4666
same,Ubb logFC,composite DEG,−0.275
same,Ubc logFC,composite DEG,−0.6618
same,Ubl5 logFC,composite DEG,−0.3033
same,Ubr4 logFC,composite DEG,0.3301
same,Ugp2 logFC,composite DEG,0.2973
same,Ugt2b1 logFC,composite DEG,−0.7768
same,Ugt2b5 logFC,composite DEG,−0.6034
same,Ugt2b36 logFC,composite DEG,−0.5834
same,Uhrf1bp1l logFC,composite DEG,0.4198
same,Uqcc2 logFC,composite DEG,−0.3269
same,Uqcrb logFC,composite DEG,−0.4084
same,Uqcrq logFC,composite DEG,−0.8867
same,Urah logFC,composite DEG,−0.7641
same,Uroc1 logFC,composite DEG,0.4162
same,Vcam1 logFC,composite DEG,0.4574
same,Vnn3 logFC,composite DEG,0.2765
same,Vtn logFC,composite DEG,0.3338
same,Wbp1l logFC,composite DEG,0.5535
same,Wdr26 logFC,composite DEG,0.4325
same,Wdr43 logFC,composite DEG,0.3438
same,Xiap logFC,composite DEG,0.2602
same,Yap1 logFC,composite DEG,0.3281
same,Zbtb20 logFC,composite DEG,0.4715
same,Zfp91 logFC,composite DEG,0.3707
same,Zyx logFC,composite DEG,0.2983
same,mmu-mir-6240 logFC,composite DEG,1.101
same,mt-Co3 logFC,composite DEG,−1.167
same,0610007P14Rik logFC,A24logFC,−0.257
same,1110058L19Rik logFC,A24logFC,−0.2581
same,4931406C07Rik logFC,A24logFC,−0.2544
same,4932438A13Rik logFC,A24logFC,0.2879
same,2810428115Rik logFC,A24logFC,−0.2631
same,Abcb11 logFC,A24logFC,−0.2618
same,Abcc2 logFC,A24logFC,0.2897
same,Abce1 logFC,A24logFC,0.28
same,Abcf1 logFC,A24logFC,0.3032
same,Abcg2 logFC,A24logFC,−0.2809
same,Acaa1a logFC,A24logFC,−0.3018
same,Acat3 logFC,A24logFC,−0.3115
same,Acot13 logFC,A24logFC,−0.2886
same,Acsm5 logFC,A24logFC,−0.2614
same,Actr3 logFC,A24logFC,0.276
same,Aes logFC,A24logFC,−0.2642
same,Anxa5 logFC,A24logFC,0.3654
same,Apof logFC,A24logFC,−0.2522
same,Arhgdia logFC,A24logFC,0.2563
same,Ash11 logFC,A24logFC,0.2657
same,Atf4 logFC,A24logFC,0.3411
same,Bc1af1 logFC,A24logFC,0.2685
same,Bdhl logFC,A24logFC,−0.2936
same,C6 logFC,A24logFC,−0.267
same,C1d logFC,A24logFC,−0.2553
same,Cap1 logFC,A24logFC,0.3251
same,Ccdc50 logFC,A24logFC,0.2858
same,Ccnl1 logFC,A24logFC,0.2566
same,Cdh1 logFC,A24logFC,0.2697
same,Cep85 logFC,A24logFC,0.2839
same,Chmp4b logFC,A24logFC,0.3002
same,Chuk logFC,A24logFC,0.3724
same,Clic4 logFC,A24logFC,0.2998
same,Coasy logFC,A24logFC,−0.2534
same,Commd3 logFC,A24logFC,−0.2656
same,Csrp3 logFC,A24logFC,−0.294
same,Ctnnd1 logFC,A24logFC,0.2518
same,Ctsc logFC,A24logFC,0.361
same,Cu11 logFC,A24logFC,0.2592
same,Cu13 logFC,A24logFC,0.2788
same,Cybb logFC,A24logFC,0.3778
same,Dcaf11 logFC,A24logFC,−0.2817
same,Ddost logFC,A24logFC,0.2504
same,Ddx3y logFC,A24logFC,0.3395
same,Deb1 logFC,A24logFC,−0.267
same,Dera logFC,A24logFC,−0.2674
same,Diap1 logFC,A24logFC,0.3259
same,Dnaja2 logFC,A24logFC,0.3723
same,Dnajc5 logFC,A24logFC,0.3265
same,Dsp logFC,A24logFC,0.2655
same,Eea1 logFC,A24logFC,0.2612
same,Eif4a1 logFC,A24logFC,0.2519
same,Eif4ebp1 logFC,A24logFC,0.2617
same,Eifia logFC,A24logFC,0.3147
same,Eifib logFC,A24logFC,0.2503
same,Eific logFC,A24logFC,0.302
same,Elovl5 logFC,A24logFC,0.3352
same,Fam195a logFC,A24logFC,−0.2649
same,Fasn logFC,A24logFC,0.2914
same,Fbxo21 logFC,A24logFC,−0.2631
same,Ftsj3 logFC,A24logFC,0.2552
same,Gadd45a logFC,A24logFC,0.2829
same,Gars logFC,A24logFC,0.2576
same,Gcat logFC,A24logFC,−0.2587
same,Gcgr logFC,A24logFC,−0.2576
same,Gda logFC,A24logFC,0.6275
same,Gldc logFC,A24logFC,0.2802
same,Glul logFC,A24logFC,0.3795
same,Gm5424 logFC,A24logFC,0.2698
same,Gm20594 logFC,A24logFC,−0.36
same,Gnai2 logFC,A24logFC,1
same,Gnas logFC,A24logFC,0.2589
same,Gsr logFC,A24logFC,0.4128
same,Gtf2a2 logFC,A24logFC,0.2792
same,H2-D1 logFC,A24logFC,0.2865
same,Hectd1 logFC,A24logFC,0.308
same,Herc1 logFC,A24logFC,0.2562
same,Herc4 logFC,A24logFC,0.2675
same,Hipk1 logFC,A24logFC,0.2916
same,Hnrnpu logFC,A24logFC,0.3394
same,Hpn logFC,A24logFC,−0.2686
same,Hsbp1 logFC,A24logFC,−0.2867
same,Iah1 logFC,A24logFC,−0.293
same,Impad1 logFC,A24logFC,0.3227
same,Ivns1abp logFC,A24logFC,0.3566
same,Kdm5a logFC,A24logFC,0.3514
same,Ldlr logFC,A24logFC,0.282
same,Lipc logFC,A24logFC,−0.2548
same,Magi3 logFC,A24logFC,0.27
same,Map3k2 logFC,A24logFC,0.2518
same,Mapkapk2 logFC,A24logFC,0.3138
same,Megf9 logFC,A24logFC,0.2769
same,Mgea5 logFC,A24logFC,0.3263
same,Mrpl11 logFC,A24logFC,−0.2685
same,Mrpl15 logFC,A24logFC,−0.2912
same,Mrpl20 logFC,A24logFC,−0.3093
same,Mrpl28 logFC,A24logFC,−0.2699
same,Mrpl34 logFC,A24logFC,−0.2838
same,Mrpl41 logFC,A24logFC,−0.2674
same,Mrpl42 logFC,A24logFC,−0.2845
same,Mrps12 logFC,A24logFC,−0.2504
same,Mvd logFC,A24logFC,−0.2704
same,Myeov2 logFC,A24logFC,−0.3052
same,Myo1b logFC,A24logFC,0.2624
same,Naa50 logFC,A24logFC,0.2657
same,Ndufa5 logFC,A24logFC,−0.252
same,Nek7 logFC,A24logFC,0.2911
same,Net1 logFC,A24logFC,0.3479
same,Nploc4 logFC,A24logFC,0.2918
same,Nqo2 logFC,A24logFC,−0.2678
same,Nucks1 logFC,A24logFC,0.3558
same,Nudt4 logFC,A24logFC,0.2542
same,Pa2g4 logFC,A24logFC,0.2893
same,Papss2 logFC,A24logFC,−0.2545
same,Pcm1 logFC,A24logFC,0.2654
same,Pde3b logFC,A24logFC,−0.259
same,Pdzd8 logFC,A24logFC,0.2863
same,Pet100 logFC,A24logFC,−0.28
same,Pgls logFC,A24logFC,−0.2747
same,Pi4k2a logFC,A24logFC,0.3536
same,Pkp4 logFC,A24logFC,0.323
same,Plbd2 logFC,A24logFC,0.2649
same,Plcxd2 logFC,A24logFC,−0.2752
same,Pmpcb logFC,A24logFC,−0.2636
same,Ppip5k2 logFC,A24logFC,0.3209
same,Ppm1g logFC,A24logFC,0.2522
same,Proc logFC,A24logFC,−0.2707
same,Prpf19 logFC,A24logFC,0.2588
same,Psap logFC,A24logFC,0.361
same,Psma1 logFC,A24logFC,−0.2567
same,Psma6 logFC,A24logFC,−0.3035
same,Ptpmt1 logFC,A24logFC,−0.256
same,Ptpn11 logFC,A24logFC,0.2778
same,Pvrl2 logFC,A24logFC,−0.2613
same,Rab6a logFC,A24logFC,0.3234
same,Rabac1 logFC,A24logFC,−0.266
same,Rangap1 logFC,A24logFC,0.2962
same,Rap1b logFC,A24logFC,0.3408
same,Rassf3 logFC,A24logFC,0.2912
same,Rbm39 logFC,A24logFC,0.2657
same,Riok3 logFC,A24logFC,0.2916
same,Rmnd5a logFC,A24logFC,0.3189
same,Rnf169 logFC,A24logFC,0.334
same,Rock1 logFC,A24logFC,0.2608
